According to PMC3529200 (Bioorganic & medicinal chemistry letters, 2010):

Key:
[1] = system: AngII-induced hypertension; assay: AngII-infused rat model of hypertension; assay type: in vivo, Sprague-Dawley rats; conditions: 50 mg/kg orally twice daily
[2] = system: CYP2C; assay: CYP inhibition
[3] = cynomolgus monkey pharmacokinetics; conditions: up to 180 mg/kg in cynomolgus monkeys
[4] = system: ca.150 other enzyme and receptor targets; assay: selectivity panel of ca.150 other enzyme and receptor targets; conditions: tested at 10 μM
[5] = early animal and human dose range finding toxicology studies; cited from earlier work
[6] = system: Caco-2 monolayer; assay: Caco-2 monolayer permeability
[7] = target: T1, CYP1A2 (Homo sapiens, UniProt P05177); assay: CYP inhibition
T1 sequence (P05177 1-516): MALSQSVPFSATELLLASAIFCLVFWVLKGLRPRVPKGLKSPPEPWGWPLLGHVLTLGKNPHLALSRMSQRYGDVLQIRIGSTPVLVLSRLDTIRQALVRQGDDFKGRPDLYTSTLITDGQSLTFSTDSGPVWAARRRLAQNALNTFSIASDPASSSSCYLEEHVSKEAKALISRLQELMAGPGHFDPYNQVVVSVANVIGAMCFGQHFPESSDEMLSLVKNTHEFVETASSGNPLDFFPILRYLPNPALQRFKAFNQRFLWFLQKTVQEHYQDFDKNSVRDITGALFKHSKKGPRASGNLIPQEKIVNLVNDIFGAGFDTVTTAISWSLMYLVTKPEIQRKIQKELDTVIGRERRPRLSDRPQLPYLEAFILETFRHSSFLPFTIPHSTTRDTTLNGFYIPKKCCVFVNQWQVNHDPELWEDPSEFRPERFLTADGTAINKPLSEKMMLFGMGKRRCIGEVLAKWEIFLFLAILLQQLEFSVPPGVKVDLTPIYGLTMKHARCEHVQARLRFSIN

[8] = pharmacokinetics, species not specified; conditions: in vivo
[9] = system: CYP2J; assay: CYP inhibition
[10] = rat pharmacokinetics; conditions: up to 2000 mg/kg in rats
[11] = plasma protein binding
[12] = dog pharmacokinetics; conditions: up to 500 mg/kg in dogs
[13] = target: CYP2C9 (Homo sapiens, UniProt P11712); assay: CYP inhibition
Chain of CYP2C9 (P11712 whole entry): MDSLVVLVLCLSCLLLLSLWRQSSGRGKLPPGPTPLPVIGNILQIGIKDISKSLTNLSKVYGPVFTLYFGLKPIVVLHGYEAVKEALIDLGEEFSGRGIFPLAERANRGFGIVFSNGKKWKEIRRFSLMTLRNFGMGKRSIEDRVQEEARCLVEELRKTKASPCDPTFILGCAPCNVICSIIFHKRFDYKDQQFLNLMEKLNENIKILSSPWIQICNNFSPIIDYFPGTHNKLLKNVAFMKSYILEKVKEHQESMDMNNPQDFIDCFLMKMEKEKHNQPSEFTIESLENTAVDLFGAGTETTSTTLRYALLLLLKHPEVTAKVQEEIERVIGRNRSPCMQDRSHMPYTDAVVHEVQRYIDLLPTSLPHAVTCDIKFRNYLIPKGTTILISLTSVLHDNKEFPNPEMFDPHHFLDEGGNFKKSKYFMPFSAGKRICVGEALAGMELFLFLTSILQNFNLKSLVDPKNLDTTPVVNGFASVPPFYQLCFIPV

[14] = target: CYP3A4 (Homo sapiens, UniProt P08684); assay: CYP inhibition
Chain of CYP3A4 (P08684 whole entry): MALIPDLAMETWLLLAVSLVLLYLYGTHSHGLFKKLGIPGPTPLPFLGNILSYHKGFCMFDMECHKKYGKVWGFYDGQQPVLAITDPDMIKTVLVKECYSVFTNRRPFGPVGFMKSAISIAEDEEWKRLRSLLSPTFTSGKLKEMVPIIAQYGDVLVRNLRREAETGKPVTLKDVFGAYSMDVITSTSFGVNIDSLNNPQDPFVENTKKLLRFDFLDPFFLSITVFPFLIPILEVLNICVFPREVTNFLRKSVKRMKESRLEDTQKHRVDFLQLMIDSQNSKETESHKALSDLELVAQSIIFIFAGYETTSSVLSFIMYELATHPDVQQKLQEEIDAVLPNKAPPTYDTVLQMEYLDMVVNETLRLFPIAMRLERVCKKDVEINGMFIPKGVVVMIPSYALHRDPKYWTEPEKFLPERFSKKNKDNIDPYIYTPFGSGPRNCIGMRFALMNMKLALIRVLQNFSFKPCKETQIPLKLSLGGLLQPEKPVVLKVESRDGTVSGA

[15] = target: CYP2C19 (Homo sapiens, UniProt P33261); assay: CYP inhibition
Chain of CYP2C19 (P33261 whole entry): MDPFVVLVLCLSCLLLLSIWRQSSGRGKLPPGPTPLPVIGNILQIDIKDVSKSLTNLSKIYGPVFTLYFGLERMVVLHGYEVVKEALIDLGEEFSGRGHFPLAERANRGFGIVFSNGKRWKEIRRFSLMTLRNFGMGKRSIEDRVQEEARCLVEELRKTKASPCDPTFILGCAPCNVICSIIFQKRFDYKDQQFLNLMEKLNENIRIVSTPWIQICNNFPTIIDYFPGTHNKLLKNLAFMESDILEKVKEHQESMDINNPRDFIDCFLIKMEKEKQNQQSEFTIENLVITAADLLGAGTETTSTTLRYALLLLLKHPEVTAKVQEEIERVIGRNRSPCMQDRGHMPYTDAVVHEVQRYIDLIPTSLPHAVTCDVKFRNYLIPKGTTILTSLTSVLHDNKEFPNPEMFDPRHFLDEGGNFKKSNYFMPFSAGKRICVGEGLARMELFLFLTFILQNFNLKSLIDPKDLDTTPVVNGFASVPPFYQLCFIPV

[16] = target: T2, CYP2B6 (Homo sapiens, UniProt P20813); assay: CYP inhibition
T2 sequence (P20813 1-491): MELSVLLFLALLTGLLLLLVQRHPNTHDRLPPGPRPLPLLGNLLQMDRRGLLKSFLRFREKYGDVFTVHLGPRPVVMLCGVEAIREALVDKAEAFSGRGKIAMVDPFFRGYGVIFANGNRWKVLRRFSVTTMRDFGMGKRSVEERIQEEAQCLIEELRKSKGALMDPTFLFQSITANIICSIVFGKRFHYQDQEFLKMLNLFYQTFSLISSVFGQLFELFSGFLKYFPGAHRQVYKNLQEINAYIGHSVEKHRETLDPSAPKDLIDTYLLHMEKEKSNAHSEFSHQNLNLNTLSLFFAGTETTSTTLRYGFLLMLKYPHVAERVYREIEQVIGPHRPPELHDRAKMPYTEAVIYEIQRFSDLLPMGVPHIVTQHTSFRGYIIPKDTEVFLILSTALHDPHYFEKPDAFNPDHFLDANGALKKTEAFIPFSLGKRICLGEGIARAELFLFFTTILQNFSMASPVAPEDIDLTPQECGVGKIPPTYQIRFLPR

[17] = system: impaired glucose tolerance; assay: diet induced-obesity; assay type: in vivo, C57Bl/6 mice; conditions: 100 mg/kg oral twice a day, after 4 weeks, ip glucose 2 g/kg 4 hours after dose

inhibition of CYP2C [2]: No significant inhibition | inhibitory activity against panel of ca.150 other enzyme and receptor targets [4]: no inhibitory activity | permeability across a Caco-2 monolayer [6]: highly permeable | inhibition of CYP1A2 [7]: No significant inhibition | clearance [8]: relatively moderate to high | half life [8]: short | inhibition of CYP2J [9]: No significant inhibition | fraction unbound [11]: 0.39 to 0.42 | inhibition of CYP2C9 [13]: No significant inhibition | inhibition of CYP3A4 [14]: No significant inhibition | inhibition of CYP2C19 [15]: No significant inhibition | inhibition of CYP2B6 [16]: No significant inhibition
Structure (SMILES): CC(=O)N1CCC(NC(=O)NC23CC4CC(CC(C4)C2)C3)CC1 [Compound 14a, 1-(1-Acetyl-piperidin-4-yl)-3-adamantan-1-yl-urea]
effect on diastolic pressure [1]: more modest effect | oral exposure (AUC) versus dose [3]: increased in approximate proportion to dose | tolerability [5]: well tolerated | oral exposure (AUC) versus dose [10]: increased in approximate proportion to dose | oral exposure (AUC) versus dose [12]: increased in approximate proportion to dose | glucose AUC versus vehicle-treated animals [17]: lower | maximal glucose excursion versus vehicle-treated animals [17]: lower
